Laboratory results taken from patent US20230381154A1, “TREATMENT OF BREAST CANCER USING COMBINATION THERAPIES COMPRISING GDC-9545 AND ABEMACICLIB OR RIBOCICLIB” (Genentech, Inc., priority 2021, published 2023).

Experiments:
[1] = target: T1, wild-type ER (Homo sapiens, UniProt P03372); assay: in vitro cell and biochemical assays, wild-type context
T1 sequence (P03372 1-595): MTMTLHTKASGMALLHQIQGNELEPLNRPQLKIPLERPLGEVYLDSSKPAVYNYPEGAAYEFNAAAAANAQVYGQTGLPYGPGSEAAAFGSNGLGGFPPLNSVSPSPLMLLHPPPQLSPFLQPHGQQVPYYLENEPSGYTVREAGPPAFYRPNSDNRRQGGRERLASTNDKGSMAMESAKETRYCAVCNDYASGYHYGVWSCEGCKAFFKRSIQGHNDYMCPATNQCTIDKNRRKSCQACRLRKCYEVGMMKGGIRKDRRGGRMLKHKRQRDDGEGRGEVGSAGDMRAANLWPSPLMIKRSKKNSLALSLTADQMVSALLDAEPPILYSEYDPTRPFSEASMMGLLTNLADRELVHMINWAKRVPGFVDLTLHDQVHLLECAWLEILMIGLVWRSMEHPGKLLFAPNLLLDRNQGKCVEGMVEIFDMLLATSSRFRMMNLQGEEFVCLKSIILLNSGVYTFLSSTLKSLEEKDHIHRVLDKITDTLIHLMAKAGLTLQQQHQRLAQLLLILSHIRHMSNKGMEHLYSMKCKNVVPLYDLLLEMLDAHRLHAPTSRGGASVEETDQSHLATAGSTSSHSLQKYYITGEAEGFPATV
Description: (§1) Furthermore, the lower plasma protein binding of GDC-9545 provides higher free concentration of GDC-9545 than fulvestrant.

[2] = human steady-state total drug exposure, GDC-9545 versus fulvestrant; format: in vivo; conditions: GDC-9545 30 mg QD versus fulvestrant 500 mg IM monthly
Description: as §1

[3] = system: ESR1-mutant; assay: in vitro cell and biochemical assays, ESR1-mutant context
Description: as §1

[4] = plasma protein binding and free concentration, GDC-9545 versus fulvestrant; format: in vitro ADME
Description: as §1

[5] = system: ER+ metastatic breast cancer; conditions: frontline patients, NCT01602380; cited from earlier work
[6] = system: xenograft models; assay: xenograft models, efficacy; format: in vivo; conditions: fulvestrant dosed according to a clinically relevant dosing scheme
Description: as §1

[7] = system: endocrine-resistant tumors; conditions: cited from earlier work
[8] = target: CDK4 (Homo sapiens, UniProt P11802); conditions: cited from earlier work
Sequence of CDK4 (P11802 whole entry): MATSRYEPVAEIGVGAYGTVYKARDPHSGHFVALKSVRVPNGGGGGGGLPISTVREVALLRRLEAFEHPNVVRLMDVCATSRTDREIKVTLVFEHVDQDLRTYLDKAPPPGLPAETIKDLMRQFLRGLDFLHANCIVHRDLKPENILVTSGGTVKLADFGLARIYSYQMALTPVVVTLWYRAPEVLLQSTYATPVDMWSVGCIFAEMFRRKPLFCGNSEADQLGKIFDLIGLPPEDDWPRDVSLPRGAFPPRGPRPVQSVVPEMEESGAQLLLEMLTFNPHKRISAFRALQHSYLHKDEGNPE
Sequence of CDK4 (P24385 whole entry partner): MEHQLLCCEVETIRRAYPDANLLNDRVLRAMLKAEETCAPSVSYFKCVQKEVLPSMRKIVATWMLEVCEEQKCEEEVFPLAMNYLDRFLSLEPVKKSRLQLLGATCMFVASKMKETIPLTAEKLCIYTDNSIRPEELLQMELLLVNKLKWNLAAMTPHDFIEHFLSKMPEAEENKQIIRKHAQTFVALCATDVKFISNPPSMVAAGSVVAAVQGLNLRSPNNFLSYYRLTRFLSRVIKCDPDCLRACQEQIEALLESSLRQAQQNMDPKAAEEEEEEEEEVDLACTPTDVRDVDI

Q: Which results are given for `C[C@@H]1Cc2c([nH]c3ccccc23)[C@@H](c2c(F)cc(NC3CN(CCCF)C3)cc2F)N1CC(F)(F)CO` [GDC-9545, 3-((1R,3R)-1-(2,6-difluoro-4-((1-(3-fluoropropyl)azetidin-3-yl)amino)phenyl)-3-methyl-1,3,4,9-tetrahydro-2H-pyrido[3,4-b]indol-2-yl)-2,2-difluoropropan-1-ol]?
A: potency relative to fulvestrant [1]: up to 10 times; steady-state total drug exposure relative to fulvestrant [2]: approximately 10 fold; potency relative to fulvestrant [3]: up to 10 times; free concentration compared with fulvestrant [4]: higher; plasma protein binding compared with fulvestrant [4]: lower

Q: Which results are given for `C[C@]12CC[C@@H]3c4ccc(O)cc4C[C@@H](CCCCCCCCC[S+]([O-])CCCC(F)(F)C(F)(F)F)[C@H]3[C@@H]1CC[C@@H]2O` (stereo partly drawn) [Fulvestrant]?
A: clinical benefit versus anastrozole [5]: benefit over anastrozole; efficacy in xenograft models compared with GDC-9545 [6]: less efficacious

Q: What does the source list for “(2-Pyrimidinamine, N-[5-[(4-ethyl-1-piperazinyl)methyl]-2-pyridinyl]-5-fluoro-4-[4-fluoro-2-methyl-1-(1-methylethyl)-1H-benzimidazol-6-yl] [abemaciclib]”?
A: single-agent activity [7]: single-agent activity; selectivity CDK4 versus CDK6 [8]: more selective for CDK4 than CDK6
